Source: paper PMC9034499, “RORγt agonist enhances anti-PD-1 therapy by promoting monocyte-derived dendritic cells through CXCL10 in cancers” (Journal of Experimental & Clinical Cancer Research : CR, 2022)

Experiments:
RORγt LBD protein = target: T1, RORγt LBD protein (Homo sapiens, UniProt P51449); test: Biacore binding to RORγt LBD protein; conditions: RORγt protein immobilized on CM5 chip
T1 construct: RORγt (residues 263–509)-GGG-SRC1; GGG linker + SRC1 peptide (C); His-tag (inferred from pET28a and nickel purification); made in house; host or cells: E. coli strain DE3, pET28a
T1 sequence (P51449 263-509): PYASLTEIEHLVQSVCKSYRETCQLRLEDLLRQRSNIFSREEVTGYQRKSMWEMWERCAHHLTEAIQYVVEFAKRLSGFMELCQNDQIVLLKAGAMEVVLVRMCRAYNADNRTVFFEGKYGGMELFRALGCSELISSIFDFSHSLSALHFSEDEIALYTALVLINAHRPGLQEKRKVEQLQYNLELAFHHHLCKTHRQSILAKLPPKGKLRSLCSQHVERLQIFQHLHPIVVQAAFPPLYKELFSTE
Source text: Human nuclear receptor RORγt (residues 263–509)-GGG-SRC1 (SRC1 sequence: EKHKILHRLLQDS, Sangon Biotech, Shanghai). RORγt LBD was cloned in pET28a. Key residue mutations of RORγt LBD (such as PHE388, LEU391, CYS393, LEU396, ILE397, ILE400, CYS320, ALA321, LEU324, MET358, and PHE388) with LYC-55716 were cloned in pET28a. Key residue mutations of RORγt LBD (MET365, ALA368, PHE401, ILE400, ILE397, LEU396, TRP317, CYS320, LEU324, ALA327, TYR330, VAL331, MET358, and VAL361) with 8-074 were cloned in pET28a. The proteins were expressed in E. coli strain DE3. Then, the transformed E. coli culture was grown at 37 °C with 30 μg/mL Kanamycin LB (Luria–Bertani). When the OD600 of LB medium reached 0.6, the temperature was changed to 16 °C, and isopropyl-β-D-thiogalactopyranoside (IPTG, Beyotime, Shanghai, China) was added at a final concentration of 0.4 mM to induce protein expression for 16 h. After 16 h, the pellet was collected after centrifugation at 4,000 rpm for 15 min at 4 °C. […]
The RORγt protein was immobilized on a CM5 chip (GE Health, Chicago, USA) using Biaocre 8 K. A sensogram was obtained using different serial concentrations of 8-074 (5000 nM, 2500 nM, 1250 nM, 625 nM, 312.5 nM, 156.25 nM, 78.125 nM, and 39.0625 nM). […] Data were analyzed using Biacore Evaluation Software.

[1] = tested on: Tc17 cells (CD8+ T cells); test: Murine Tc17 differentiation, flow cytometry; format: cell-based, mouse; conditions: Tc17, intracellular staining, same concentration
Description: CD4^+ CD25^−CD62L^high cells were purified from C57BL/6 splenocytes using an EasySep Mouse Naïve CD4^+ T cell isolation kit from STEMCELL Technologies (Vancouver, Canada), and they were differentiated into Th17 cells (TGF-β, 2 ng/ml; IL-6, 20 ng/ml; Anti-IFN-γ, 10 μg/ml; Anti-IL-4, 10 μg/ml, BioLegend, San Diego, CA) in the presence of plate-bound anti-CD3 (5 μg/ml, BioLegend, San Diego, CA) and anti-CD28 (2 μg/ml, BioLegend, San Diego, CA). The cells were harvested and processed for cytokine analysis at the RNA or protein level using real-time qPCR, flow cytometry, and ELISA on day five. Alternatively, splenocytes from OT-I mice were activated using OVA-derived peptides SIINFEKL (50 ng/ml, Sangon Biotech, Shanghai, China) and polarized to Tc17 cells using cytokine TGF-β (2 ng/ml, BioLegend, San Diego, CA) and IL-6 (20 ng/ml, BioLegend, San Diego, CA) for four or five days.
Cells were stained with fluorochrome-labeled anti-mouse Ab such as CD45, CD3, CD4, CD8, Foxp3, IFN-γ, IL-17A, CD11b, CD11c, pAKT, pSTAT3, CCR6, or MHCII. […] Cells were acquired using the FACS Aria II machine and analyzed using FlowJo software.

macrophages = test: Macrophage markers by qPCR; format: cell-based; conditions: compared with vehicle
Description: The intracellular cytokines by TILs or in vitro differentiated T helper cells were quantified after restimulation with PMA plus ionomycin in the presence of GolgiStop for 6 h. The total RNA was isolated using the improved TRizol-based (Sigma, Darmstadt, Germany) method for qPCR analysis, and the mRNA expression was analyzed using a StepOnePlus (Life Technologies, Carlsbad, USA) real-time PCR instrument using housekeeping gene β-actin and Gapdh internal standards. qPCR was performed using A Power SYBR Green PCR Master Mix (Accurate Biology, Hunan, China) and two-cycle amplification for 40 cycles followed by the melting curve. The sequence of primers is listed in the Additional file 6: Table S1. In addition, the cytokines were quantified in cell-free culture supernatants using enzymelinked immunosorbent assay (ELISA) kit (the optical density (OD) value was measured at 450 nm, using 570 nm or 630 nm as the reference wavelengths, Multisciences, Hangzhou, China). The kit was used according to the manufacturer’s instructions.
To confirm the in vitro specificity of 8-074, splenocytes from C57BL/6 wild-type mice were activated by plate-bound anti-CD3 and anti-CD28 antibodies and polarized with anti-IL-4 and IL-12 to obtain Th1 cells. IFN-γ, a signature cytokine of Th1 cells, was not affected by LYC-55716 or 8-074 compared with vehicle alone (Fig. 2j, Fig. S2g).

CCS(=O)(=O)c1ccc(CC(=O)Nc2ccc(-c3ccc(CC(C)C)c(C#N)c3)c(C(F)(F)F)c2)cc1 [8-074]
Kd (RORγt LBD protein): 497 nM | percentage of CD8+ T cells that express IL-17A [1]: 50.4% | gene expression of macrophage markers Arg1, Il-1β, Il-6, and Il-10 (macrophages): no significant change
